Drawing on patent US8916526B2, “Flavanone derivative” (National University Corporation Okayama University, priority 2009, dated 2014), this text covers MIC and IC50 for one compound.

The test system of assay [1] is Pseodomonas aeruginosa PAOI. Description: Antibacterial activity (MIC) against Gram-negative strains, microdilution. It is filed as cell-based. Particulars: MIC after 24 h, read-out: MIC (Gram-nagative) PAO1. A digest of the protocol:
(§1)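 CLSI broth microdilution in Mueller-Hinton broth with 0.85% NaCl, inoculum about 10^5 […]. Incubated 35° C for 24 hours; MIC taken as the minimum inhibitory concentration, measured three times.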

A further assay has as its system Escherichia coli K-12. The description is as above. Type of assay: cell-based. The note with it: K12, MIC after 24 h, read-out: MIC (Gram-nagative) K-12. A digest of the protocol: as §1
The subject of assay [2] is Streptococcus pneumoniae R6. Put plainly: In vitro infectivity assay (MIC), Exp. Ex. 2-1. The note with it: Streptococcus pneumoniae, R6; Gram-positive; microdilution, MIC after 24 h; read-out: MIC S. Pneumoniae R6. Type of assay: cell-based.
For assay [3], the system named is Methicillin sensitive S. aureus 209P. Description: In vitro infectivity assay (MIC), Exp. Ex. 2-1. It is filed as cell-based, Staphylococcus aureus. The note with it: Staphylococcus aureus, 209P / MSSA; Gram-positive; microdilution, MIC after 24 h; read-out: MIC MSSA 209P. The gist of the method: (§2)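 Activity is expressed as MIC under CLSI broth dilution, using a starting inoculum near 10^5 CUF/[…] in Mueller-Hinton medium plus 0.85% NaCl; plates sit at 35° C for 24 hours, three measurements.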

For assay [4], the system named is Methicillin-resistant S. aureus OM584. Description: In vitro infectivity assay (MIC), Exp. Ex. 2-1. Type of assay: cell-based, Staphylococcus aureus. The note with it: Staphylococcus aureus, MRSA; Gram-positive; microdilution, MIC after 24 h; read-out: MIC MRSA OM584. The gist of the method: as §2
Assay [5] concerns Methicillin-resistant S. aureus N315. Put plainly: In vitro infectivity assay (MIC), Exp. Ex. 2-1. Type of assay: cell-based, Staphylococcus aureus. The note with it: Staphylococcus aureus, MRSA; Gram-positive; microdilution, MIC after 24 h; read-out: MIC MRSA N315. The gist of the method:
as §2

The test system of assay [6] is Methicillin-resistant S. aureus COL. Put plainly: In vitro infectivity assay (MIC), Exp. Ex. 2-1. It is filed as cell-based, Staphylococcus aureus. The note with it: Staphylococcus aureus, MRSA; Gram-positive; microdilution, MIC after 24 h.
Assay [7] deals with Methicillin-resistant S. aureus OM481. Description: In vitro infectivity assay (MIC), Exp. Ex. 2-1. Type of assay: cell-based, Staphylococcus aureus. Particulars: Staphylococcus aureus, MRSA; Gram-positive; microdilution, MIC after 24 h; read-out: MIC MRSA OM481. A digest of the protocol:
as §2

The subject of another assay is VRE NCTC12201. Put plainly: In vitro infectivity assay (MIC), broth dilution, Exp. Ex. 1-1. It is filed as cell-based, enterococci. Particulars: Enterococcus; VRE NCTC12201; Mueller-Hinton broth, 35° C., 24 hours; read-out: MIC VRE NCTC12201. A digest of the protocol:
(§3)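 Inoculate ~10^5 CUF/[…] into NaCl-supplemented (0.85%) Mueller-Hinton broth; incubate 35° C., 24 hours; record MIC. CLSI broth dilution method, n=3.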

Another assay concerns VRE FN-1. The assay is described as above. Type of assay: cell-based, enterococci. Particulars: Enterococcus; VRE FN-1; Mueller-Hinton broth, 35° C., 24 hours; read-out: MIC VRE FN-1. The gist of the method: as §3
Another assay concerns the target T1, E. coli DNA gyrase (Escherichia coli, UniProt P0AES4+P0AES6).
T1 construct: purchased John Innes Enterprises #K0001
Description: DNA gyrase inhibition (supercoiling kit), Exp. Ex. 2-2. Type of assay: biochemical. A digest of the protocol: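 IC50 derived from gel electrophoresis separating supercoiled from relaxed DNA. Reactions ran 30 minutes at 37° C with 1 U gyrase, […] relaxed pBR322, 1 mM ATP and 4 mM MgCl2 in Tris-HCl buffer (pH 7.5), then stopped with EDTA-containing solution.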

Assay [8] concerns Vancomycin intermediate-resistant Staphylococcus aureus Mu50. Description: In vitro infectivity assay (MIC), Exp. Ex. 2-1. Type of assay: cell-based. The note with it: Staphylococcus aureus, VISA; Gram-positive; microdilution, MIC after 24 h; read-out: MIC VISA Mu50. The gist of the method: as §2
The subject of assay [9] is Vancomycin-resistant enterococci NCTC 12201. Description: In vitro infectivity assay (MIC), Exp. Ex. 2-1. Type of assay: cell-based. Particulars: Enterococcus, NCTC 12201 / VRE; Gram-positive; microdilution, MIC after 24 h; read-out: MIC VRE NCTC 12201. The gist of the method: as §2
Assay [10] relates to Vancomycin-resistant enterococci FN-1. Put plainly: In vitro infectivity assay (MIC), Exp. Ex. 2-1. The note with it: Enterococcus, VRE; Gram-positive; microdilution, MIC after 24 h; read-out: MIC VRE FN-1. Type of assay: cell-based. A digest of the protocol:
as §2

Each structure is given as a SMILES string. Values after ≈ are worked out from the molar mass of the structure shown.

T1 sequence (P0AES4 whole entry, one chain of several): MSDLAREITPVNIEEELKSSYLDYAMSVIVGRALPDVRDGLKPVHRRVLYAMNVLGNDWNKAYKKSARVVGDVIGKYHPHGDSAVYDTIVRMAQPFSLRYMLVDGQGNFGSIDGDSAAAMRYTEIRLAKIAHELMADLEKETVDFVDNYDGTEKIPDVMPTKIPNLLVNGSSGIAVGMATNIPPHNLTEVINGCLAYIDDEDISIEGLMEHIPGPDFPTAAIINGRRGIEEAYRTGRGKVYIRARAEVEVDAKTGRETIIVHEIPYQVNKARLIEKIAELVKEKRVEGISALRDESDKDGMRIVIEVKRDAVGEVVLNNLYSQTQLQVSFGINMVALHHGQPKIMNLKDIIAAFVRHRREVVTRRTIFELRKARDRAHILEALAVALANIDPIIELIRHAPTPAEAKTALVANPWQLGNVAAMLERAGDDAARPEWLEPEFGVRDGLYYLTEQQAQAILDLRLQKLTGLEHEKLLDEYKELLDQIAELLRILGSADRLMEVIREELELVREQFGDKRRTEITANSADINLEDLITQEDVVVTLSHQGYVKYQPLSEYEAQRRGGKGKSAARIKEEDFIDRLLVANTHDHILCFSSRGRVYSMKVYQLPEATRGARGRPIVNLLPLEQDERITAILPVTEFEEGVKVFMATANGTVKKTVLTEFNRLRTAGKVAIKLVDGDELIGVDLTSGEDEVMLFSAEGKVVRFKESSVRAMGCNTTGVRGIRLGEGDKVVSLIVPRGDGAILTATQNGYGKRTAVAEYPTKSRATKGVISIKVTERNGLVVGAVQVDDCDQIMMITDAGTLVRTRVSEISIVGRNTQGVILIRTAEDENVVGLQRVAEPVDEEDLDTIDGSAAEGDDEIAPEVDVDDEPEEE

Regarding `O=c1c(O)c(-c2ccc(O)c(O)c2)oc2cc(O)cc(O)c12` [Quercetin, quercetin, reference compound], the minimum inhibitory concentration (MIC) is more than 128 µg/mL in assay [1]; 64 µg/mL (≈ 212 µM) in the assay with Escherichia coli K-12; more than 128 µg/mL in [2]; more than 128 µg/mL in [3]; more than 128 µg/mL in assay [4]; more than 128 µg/mL in [5]. Besides, the MIC (in assay [6]; in assay [7]; with VRE NCTC12201; in the assay on VRE FN-1; in [8]; in assay [9]) was more than 128 µg/mL each time. Also, in assay [10], the minimum inhibitory concentration (MIC) is more than 128 µg/mL. The half-inhibitory concentration (IC50) on E. coli DNA gyrase was 140 nM.
